PubChem BioAssay AID2060504 (Molecular Pharmacology Branch, DTP, NCI, 2025)

Test system: 636577-100-R-J1-PDC complex spheroid viability
Test: Anticancer human tumor 636577-100-R-J1-PDC patient-derived endometrial adenocarcinoma cell line growth inhibition [GQUAD]
Conditions: for IC50: curve of first compound; for viability, T/C: stronger effect = lower value
Excerpt: DNA G-quadruplex Stabilizer Agents in Combinations in Complex Spheroids
A high-throughput screen of multi-cell type tumor spheroids was designed to identify active combinations of DNA G-quadruplex stabilizer agents and targeted small molecules. Complex spheroids include a stromal component modeled by human endothelial cells (HUVEC) and fibroblasts modeled by human mesenchymal stem cells (MSCs). The concentration ranges selected for each drug and investigational agent were based upon clinically achievable concentrations if the clinical Cmax of the agent was known.
Compounds. The drugs and investigational agents: pidnarulex (CX-5461; NSC782164), APTO-253 (NSC789042), BRACO-19 (NSC847499), peposertib (NSC802822), ceralasertib (NSC780249), elimusertib (NSC800525), camonsertib (NSC841442), AZD-1390 (NSC803789), olaparib (NSC753686), talazoparib (NSC767125), ART-558 (NSC835418), sotorasib (NSC818433), MRTX-1133 (NSC836407), SN-38 (NSC673596), topotecan (NSC609699), etoposide (NSC141540), doxorubicin (NSC123127), gemcitabine (NSC613327), 5-fluorouracil (NSC19893), paclitaxel (NSC125973), vemurafenib (NSC761431), panobinostat (NSC761190), R-306465 (JNJ-16241199; NSC773264), adavosertib (NSC754352), TP-3654 (NSC805149), carboplatin (NSC241240), KSQ-4279 (NSC840948), and staurosporine (NSC755774) were obtained from the National Cancer Institute (NCI) Developmental Therapeutics Program Chemical Repository (34). The FDA-approved anticancer drug set is available from the NCI Developmental Therapeutics Program. […] The stock solutions were prepared in dimethyl sulfoxide (DMSO, Sigma-Aldrich, St. Louis, MO, cat. D2650) at 800-fold the tested concentration and stored at -70 degrees C prior to their use. All drugs and investigational agents were tested over a range starting from a high concentration at or near the clinical Cmax and decreasing in half-log increments. If the clinical Cmax for an agent had not been determined, the highest concentration tested was 10 microM.
2.3 Cell Culture. All cells were maintained in an incubator at 37 degrees C and 5% CO2 with 95% humidity. The PDC lines were cultured according to standard operating procedures established by the NCI PDMR. All PDCs were thawed and cultured in Matrigel-coated flasks prepared with a working solution of 1X Ham's F-12 nutrient mix, without supplementation (Invitrogen, cat. 11765054), 100 U/mL penicillin-streptomycin (Invitrogen, cat. 15140122), and 2.5% Matrigel (Corning Inc., cat. 354248) for the first three passages. The 857933-349-R-J2-PDC line was cultured in 6C/Colon 1B media, which includes advanced DMEM/F-12 (Thermo Fisher Scientific, cat. 12634028), 10 mM HEPES (Thermo Fisher Scientific, cat. 15630080), 1X GlutaMAX supplement (Thermo Fisher Scientific, cat. 35050061), 0.1 mg/mL primocin (InvivoGen, cat. ant-pm-2), 10% defined fetal bovine serum, heat inactivated (HyClone Laboratories Inc., cat. SH30070.03HI), 50% L-WRN conditioned media (ATCC, cat. CRL-3276), 1.25 mM N-Acetyl-L-cysteine (Sigma-Aldrich, cat. A9165), 10 mM nicotinamide (Sigma-Aldrich, cat. N0636), 1X B-27 supplement (Thermo Fisher Scientific, cat. 17504044), 1X N-2 supplement (Thermo Fisher Scientific, cat. 17502048), 10 microM Y-27632 dihydrochloride (Tocris Bioscience, cat. 1254), and 50 ng/mL human EGF recombinant protein (Thermo Fisher Scientific, cat. PHG0311). The 485176-168-R4-J1-PDC line was cultured in Panc media, which includes all 6C/Colon 1B media components plus 100 ng/mL human FGF-10 (Thermo Fisher Scientific, cat. 100-26), 500 nM SB-431542 (Selleckchem, cat. S1067), and gastrin (Tocris, cat. 3006).
[…]

[1] = second compound 0.0316 µM, first compound 0.0316 µM
[2] = second compound 0.0316 µM, first compound 0.316 µM
[3] = second compound 0.1 µM, first compound 0.0316 µM
[4] = second compound 0.1 µM, first compound 0.316 µM
[5] = second compound 0.316 µM, first compound 0.0316 µM
[6] = second compound 0.316 µM, first compound 0.316 µM
[7] = second compound 1 µM, first compound 0.0316 µM
[8] = second compound 1 µM, first compound 0.316 µM
[9] = second compound 3.16 µM, first compound 0.0316 µM
[10] = second compound 3.16 µM, first compound 0.316 µM
[11] = second compound 10 µM, first compound 0.0316 µM
[12] = second compound 10 µM, first compound 0.316 µM
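Also: viability read after seven days of drug exposure.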
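For viability, T/C in this document: luminescence signal used as a proxy for viable cells; 100% = DMSO vehicle control wells.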

`CCc1c2c(nc3ccc(O)cc13)-c1cc3c(c(=O)n1C2)COC(=O)[C@]3(O)CC` + CN(C)c1ccc(Nc2c3ccc(NC(=O)CCN4CCCC4)cc3nc3cc(NC(=O)CCN4CCCC4)ccc23)cc1 was tested, and the IC50 (second compound 0.0316 µM) was < 0.999 nM, the IC50 (second compound 0.1 µM) was < 0.999 nM and the IC50 (second compound 0.316 µM) was < 0.999 nM. For the same molecule, the IC50 (second compound 1 µM) was < 0.999 nM, the IC50 (second compound 3.16 µM) was < 0.999 nM and the IC50 (second compound 10 µM) was < 0.999 nM. The viability, T/C (second compound 0.0316 µM, first compound 0.000999 µM) was 46.8%, the viability, T/C (second compound 0.0316 µM, first compound 0.00316 µM) was 23.4% and the viability, T/C (second compound 0.0316 µM, first compound 0.00999 µM) was 26%. For the same molecule, the viability, T/C [1] was 16.6%, the viability, T/C (second compound 0.0316 µM, first compound 0.0999 µM) was 17.7% and the viability, T/C [2] was 12.4%. For the same molecule, the viability, T/C (second compound 0.1 µM, first compound 0.000999 µM) was 43.7%, the viability, T/C (second compound 0.1 µM, first compound 0.00316 µM) was 21.6% and the viability, T/C (second compound 0.1 µM, first compound 0.00999 µM) was 22.2%. The viability, T/C [3] was 18.1%, the viability, T/C (second compound 0.1 µM, first compound 0.0999 µM) was 17% and the viability, T/C [4] was 12.9%. The viability, T/C (second compound 0.316 µM, first compound 0.000999 µM) was 41.9%, the viability, T/C (second compound 0.316 µM, first compound 0.00316 µM) was 23.1% and the viability, T/C (second compound 0.316 µM, first compound 0.00999 µM) was 20.3%. It also gave a viability, T/C [5] of 21.1%, a viability, T/C (second compound 0.316 µM, first compound 0.0999 µM) of 19.2% and a viability, T/C [6] of 13.2%. It also gave a viability, T/C (second compound 1 µM, first compound 0.000999 µM) of 39.4%, a viability, T/C (second compound 1 µM, first compound 0.00316 µM) of 21.4% and a viability, T/C (second compound 1 µM, first compound 0.00999 µM) of 24.2%. For the same molecule, the viability, T/C [7] was 22.6%, the viability, T/C (second compound 1 µM, first compound 0.0999 µM) was 19.4% and the viability, T/C [8] was 13.4%. For the same molecule, the viability, T/C (second compound 3.16 µM, first compound 0.000999 µM) was 29.8%, the viability, T/C (second compound 3.16 µM, first compound 0.00316 µM) was 22% and the viability, T/C (second compound 3.16 µM, first compound 0.00999 µM) was 19.5%. It also gave a viability, T/C [9] of 18.4%, a viability, T/C (second compound 3.16 µM, first compound 0.0999 µM) of 16.8% and a viability, T/C [10] of 9.28%. It also gave a viability, T/C (second compound 10 µM, first compound 0.000999 µM) of 4.84%, a viability, T/C (second compound 10 µM, first compound 0.00316 µM) of 4.42% and a viability, T/C (second compound 10 µM, first compound 0.00999 µM) of 4.45%. It also gave a viability, T/C [11] of 4.23%, a viability, T/C (second compound 10 µM, first compound 0.0999 µM) of 4.1% and a viability, T/C [12] of 2.29%.

With `COc1cccc2c1C(=O)c1c(O)c3c(c(O)c1C2=O)CC(O)(C(=O)CO)CC3OC1CC(N)C(O)C(C)O1` (centres undefined) + CN(C)c1ccc(Nc2c3ccc(NC(=O)CCN4CCCC4)cc3nc3cc(NC(=O)CCN4CCCC4)ccc23)cc1 the IC50 (second compound 0.0316 µM) was < 31.6 nM, the IC50 (second compound 0.1 µM) was < 31.6 nM and the IC50 (second compound 0.316 µM) was < 31.6 nM. The IC50 (second compound 1 µM) was < 31.6 nM, the IC50 (second compound 3.16 µM) was < 31.6 nM and the IC50 (second compound 10 µM) was < 31.6 nM. For the same molecule, the viability, T/C [1] was 28%, the viability, T/C (second compound 0.0316 µM, first compound 0.1 µM) was 17.2% and the viability, T/C [2] was 15.3%. The viability, T/C (second compound 0.0316 µM, first compound 1 µM) was 7.48%, the viability, T/C (second compound 0.0316 µM, first compound 3.16 µM) was 0.17% and the viability, T/C (second compound 0.0316 µM, first compound 10 µM) was 0.58%. The viability, T/C [3] was 27.2%, the viability, T/C (second compound 0.1 µM, first compound 0.1 µM) was 15.9% and the viability, T/C [4] was 15.3%. The viability, T/C (second compound 0.1 µM, first compound 1 µM) was 7.46%, the viability, T/C (second compound 0.1 µM, first compound 3.16 µM) was 0.12% and the viability, T/C (second compound 0.1 µM, first compound 10 µM) was 0.61%. For the same molecule, the viability, T/C [5] was 28%, the viability, T/C (second compound 0.316 µM, first compound 0.1 µM) was 18.6% and the viability, T/C [6] was 12.9%. It also gave a viability, T/C (second compound 0.316 µM, first compound 1 µM) of 7.67%, a viability, T/C (second compound 0.316 µM, first compound 3.16 µM) of 0.2% and a viability, T/C (second compound 0.316 µM, first compound 10 µM) of 0.5%. The viability, T/C [7] was 25%, the viability, T/C (second compound 1 µM, first compound 0.1 µM) was 18.6% and the viability, T/C [8] was 13.3%. For the same molecule, the viability, T/C (second compound 1 µM, first compound 1 µM) was 7.58%, the viability, T/C (second compound 1 µM, first compound 3.16 µM) was 0.13% and the viability, T/C (second compound 1 µM, first compound 10 µM) was 0.47%. The viability, T/C [9] was 19.4%, the viability, T/C (second compound 3.16 µM, first compound 0.1 µM) was 17.2% and the viability, T/C [10] was 10.8%. The viability, T/C (second compound 3.16 µM, first compound 1 µM) was 3.65%, the viability, T/C (second compound 3.16 µM, first compound 3.16 µM) was 0.16% and the viability, T/C (second compound 3.16 µM, first compound 10 µM) was 0.34%. It also gave a viability, T/C [11] of 4.99%, a viability, T/C (second compound 10 µM, first compound 0.1 µM) of 3.27% and a viability, T/C [12] of 1.84%. It also gave a viability, T/C (second compound 10 µM, first compound 1 µM) of 0.34%, a viability, T/C (second compound 10 µM, first compound 3.16 µM) of 0.19% and a viability, T/C (second compound 10 µM, first compound 10 µM) of 0.27%.
